Consider 59 compounds from patent US9023865B2, “Compounds that are ERK inhibitors” (Merck Sharp & Dohme Corp., priority 2011, dated 2015).

The target in the experiment is Active Human ERK2 (hERK2) (Homo sapiens (Human), UniProt P28482). Kind of experiment: Active Human ERK2 (hERK2) Activity Assay (IMAP-FP). The experiment is classed as biochemical. In a few lines:
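Phosphorylation by activated human ERK2 (0.5 nM) at 30 μM ATP, peptide substrate 900 nM unlabeled with 80 nM labeled, proceeds 60 min. IMAP beads stop the reaction; after 60 min equilibration, product is measured by fluorescence polarization.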

Setting [1] is: phosphorylated active hERK2, 30 μM ATP, average, read-out: ERK 2 Human average IC50.
Where [2] appears, read: read-out: AERK2 IC50 (Active human ERK2 Activity Assay).

Structures are written as SMILES. Like-named read-outs stand apart in the source and are kept apart here.

Active Human ERK2 (hERK2), sequence (P28482 whole entry): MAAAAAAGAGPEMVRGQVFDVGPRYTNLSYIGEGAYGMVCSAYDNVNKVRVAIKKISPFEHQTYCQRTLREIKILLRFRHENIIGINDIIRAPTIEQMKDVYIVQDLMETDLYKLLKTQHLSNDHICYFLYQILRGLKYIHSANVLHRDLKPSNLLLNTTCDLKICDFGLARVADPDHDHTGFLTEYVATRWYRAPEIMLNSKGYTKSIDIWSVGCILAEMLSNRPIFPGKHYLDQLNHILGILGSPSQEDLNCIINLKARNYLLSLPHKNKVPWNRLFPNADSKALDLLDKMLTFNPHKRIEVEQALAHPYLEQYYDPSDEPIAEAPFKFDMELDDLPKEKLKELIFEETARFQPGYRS

With `CN1C[C@@H](NC(=O)Nc2cc3[nH]nc(-c4ccc(F)cc4)c3cn2)[C@H](c2ccccc2)C1` [Example 214], the 50% inhibitory concentration (IC50) – broadly, the midpoint of a concentration-inhibition curve – under setting [1] amounted to 0.394 nM. `Cc1cc(-c2n[nH]c3cc(NC(=O)NCc4nccs4)ncc23)ccn1` [Example 436]: under setting [1], the IC50 is 2.14 nM. Consider `Cc1cc(-c2n[nH]c3cc(NC(=O)NCC4CCCCC4)ncc23)ccn1` [Example 578], for which, under setting [1], the IC50 was 0.561 nM.

Turning to `COC[C@@H](NC(=O)Nc1cc2[nH]nc(C3CC3)c2cn1)c1ccccc1` [Example 160], the IC50 under setting [1] is 1.38 nM.

As to `CO[C@H](C)CNC(=O)Nc1cc2[nH]nc(-c3ccc(F)cc3)c2cn1` [Example 634], the IC50 under setting [1] was found to be 1.3 nM.

For `Cn1cc2cc(-c3n[nH]c4cc(NC(=O)NCc5ccc(F)c(Cl)c5)ncc34)ccc2n1` [Example 64, 1-(3-chloro-4-fluorobenzyl)-3-[3-(2-methyl-2H-indazol-5-yl)-1H-pyrazolo[4,3-c]pyridin-6-yl]urea], the IC50 reads like this: under setting [1], 0.586 nM; under setting [2], 0.2 to 1.7 nM. Turning to `Cc1cc(-c2n[nH]c3cc(NC(=O)NCc4cn5c(C)cccc5n4)ncc23)ccn1` [Example 392], the IC50 under setting [1] was found to be 22.6 nM.

Regarding `Cc1cc(-c2n[nH]c3cc(NC(=O)Nc4ccc(NCCc5ccccc5)nn4)ncc23)ccn1` [Example 55, 1-[3-(2-methylpyridin-4-yl)-1H-pyrazolo[4,3-c]pyridin-6-yl]-3-{6-[(2-phenylethyl)amino]pyridazin-3-yl}urea], under setting [1], the IC50 was 35 nM.

As to `C[C@@H](NC(=O)Nc1cc2[nH]nc(CO)c2cn1)c1ccccc1` [Example 615], the concentration for half-maximal inhibition (IC50) under setting [1] came to 6.16 nM. Take `C[C@@H](NC(=O)Nc1cc2[nH]nc(-c3ccc(-n4ccnn4)cc3)c2cn1)c1ccc(F)cc1` [Example 242, 1-[(1R)-1-(4-fluorophenyl)ethyl]-3-{3-[4-(1H-1,2,3-triazol-1-yl)phenyl]-1H-pyrazolo[4,3-c]pyridin-6-yl}urea]: the IC50 under setting [1] was 5.54 nM. `Cc1cc(-c2n[nH]c3cc(NC(=O)N[C@H](COCC(F)F)c4ccccc4)ncc23)no1` [Example 701]: under setting [1], the half-maximal inhibitory concentration (IC50) was determined as 4.57 nM. On to `Cc1cc(-c2n[nH]c3cc(NC(=O)N[C@@H]4CCOc5cc(C#N)ccc54)ncc23)ccn1` [Example 266], for which the IC50 under setting [1] is 70.6 nM. `COc1cccc(F)c1CNC(=O)Nc1cc2[nH]nc(-c3ccnc(C)c3)c2cn1` [Example 485]: the 50% inhibitory concentration (IC50) under setting [1] was found to be 0.307 nM. For `Cc1cc(-c2n[nH]c3cc(NC(=O)NC(CO)C(F)(F)F)ncc23)ccn1` (centres unmarked) [Example 194], under setting [1], the IC50 came out at 13.5 nM. For `CC(=O)OC1CCCC(NC(=O)Nc2cc3[nH]nc(-c4ccnc(C)c4)c3cn2)C1` (centres unmarked) [Example 381], under setting [1], the IC50 is 6.71 nM.

Consider `C[C@@H](NC(=O)Nc1cc2[nH]nc(C(=O)NCC(F)(F)CN3CCCC3)c2cn1)c1ccccc1` [Example 128], for which the concentration for half-maximal inhibition (IC50) under setting [1] worked out at 19 nM. On the same count and under the same terms, the result for `Cc1cc(-c2n[nH]c3cc(NC(=O)N[C@@H]4CN(C)C[C@H]4F)ncc23)ccn1` [Example 329, 1-((3R,4R)-4-fluoro-1-methylpyrrolidin-3-yl)-3-(3-(2-methylpyridin-4-yl)-1H-pyrazolo[4,3-c]pyridin-6-yl)urea] reads 56.5 nM. On the same count and under the same terms, the result for `Cc1cc(-c2n[nH]c3cc(NC(=O)N[C@@H](CN)c4ccccc4)ncc23)ccn1` [Example 172] reads 243 nM. Still for that read-out and setting: in the case of `Cc1cc(-c2n[nH]c3cc(NC(=O)NCC4CCC4)ncc23)ccn1` [Example 574] it was 1.41 nM; in that of `C[C@@H](NC(=O)Nc1cc2[nH]nc(C#N)c2cn1)c1ccccc1` [Example 537, (R)-1-(3-cyano-1H-pyrazolo[4,3-c]pyridin-6-yl)-3-(1-phenylethyl)urea], 66.6 nM. For `Cc1cc(-c2n[nH]c3cc(NC(=O)NC4CCc5cccnc5C4)ncc23)ccn1` (centres unmarked) [Example 505], the IC50 under setting [1] is 0.865 nM. The same measure, in the same setting: in the case of `C[C@@H](NC(=O)Nc1cc2[nH]nc(-c3ccnc(C#N)c3)c2cn1)c1ccc(F)cc1` [Example 258] it was 1.76 nM.

For `Cc1cc(-c2n[nH]c3cc(NC(=O)N[C@H]4CN(C)[C@@H](C(F)F)[C@@H]4c4ccccc4)ncc23)ccn1` [Example 567], under setting [1], the concentration for half-maximal inhibition (IC50) stood at 0.441 nM. `COC(=O)C1CC1c1n[nH]c2cc(NC(=O)N[C@H](C)c3ccccc3)ncc12` (some centres unmarked) [Example 641]: under setting [1], the half-inhibitory concentration (IC50) worked out at 1100 nM.

With `CNC(c1n[nH]c2cc(NC(=O)N[C@H](C)c3ccccc3)ncc12)C(F)(F)F` (stereo partly drawn) [Example 564, 1-((R)-1-phenylethyl)-3-(3-(2,2,2-trifluoro-1-(methylamino)ethyl)-1H-pyrazolo[4,3-c]pyridin-6-yl)urea], the IC50 under setting [1] came out at 50 nM. As for `Cc1cc(-c2n[nH]c3cc(NC(=O)NCc4ccccc4F)ncc23)ccn1` [Example 442], the IC50 under setting [1] was found to be 0.815 nM. Turning to `Cc1cc(-c2n[nH]c3cc(NC(=O)NC(C)(C)C)ncc23)ccn1` [Example 36, 1-tert-butyl-3-[3-(2-methylpyridin-4-yl)-1H-pyrazolo[4,3-c]pyridin-6-yl]urea], the half-inhibitory concentration (IC50) under setting [1] amounted to 32.6 nM.

In the case of `Cc1cc(-c2n[nH]c3cc(NC(=O)N[C@H](CN(C)C)c4ccccc4)ncc23)ccn1` [Example 482], under setting [1], the IC50 came out at 0.29 nM.

Consider `Cc1cc(-c2n[nH]c3c(Br)c(NC(=O)N[C@H](C)c4ccc(Cl)cc4)ncc23)ccn1` [Example 86, 1-[7-bromo-3-(2-methylpyridin-4-yl)-1H-pyrazolo[4,3-c]pyridin-6-yl]-3-[(1R)-1-(4-chlorophenyl)ethyl]urea], for which, under setting [1], the IC50 turned out to be 455 nM. The same measure, in the same setting: in the case of `Cc1cc(-c2n[nH]c3cc(NC(=O)NCc4cccc(S(C)(=O)=O)c4)ncc23)ccn1` [Example 619] it was 0.159 nM; in that of `Cc1cc(-c2n[nH]c3cc(NC(=O)N[C@@H]4CCCCc5ccccc54)ncc23)ccn1` [Example 265], 1.64 nM.

For `CO[C@@H]1CN(C)C[C@H]1NC(=O)Nc1cc2[nH]nc(-c3ccc(F)cc3)c2cn1` [Example 318], the IC50 under setting [1] was 30.2 nM. Still for that read-out and setting: the result for `O=C(NCC1CCC1)Nc1cc2[nH]nc(-c3ccc(F)cc3)c2cn1` [Example 592] reads 2.88 nM.

Regarding `CCO[C@H]1CN(C)C[C@@H]1NC(=O)Nc1cc2[nH]nc(-c3ccc(F)cc3)c2cn1` [Example 319], the IC50 under setting [1] came to 0.521 nM.

Regarding `Cc1cc(-c2n[nH]c3cc(NC(=O)N[C@@H]4CCCc5ncccc54)ncc23)ccn1` [Example 261], the 50% inhibitory concentration (IC50) under setting [1] came to 1.49 nM. The same measure, in the same setting: in the case of `Cc1cc(-c2n[nH]c3cc(NC(=O)NCC(C)c4ccccc4)ncc23)ccn1` (centres unmarked) [Example 584] it was 0.679 nM; in that of `CN1C[C@H](NC(=O)Nc2cc3[nH]nc(-c4ccc(F)cc4)c3cn2)[C@@H](c2ccccc2)C1` [Example 213], 42.1 nM; in that of `COC[C@@H](NC(=O)Nc1cc2[nH]nc(-c3ccnc(C)c3)c2cn1)c1ccccc1` [Example 538], 0.298 nM. For the compound `COC(=O)C1CC1c1n[nH]c2cc(NC(=O)N[C@H](C)c3ccccc3)ncc12` (some centres unmarked) [Example 643], the IC50 under setting [1] was 1.33 nM.

Consider `Cc1cc(-c2n[nH]c3c(Cl)c(NC(=O)N[C@H](C)c4ccccc4)ncc23)ccn1` [Example 571, (R)-1-(7-chloro-3-(2-methylpyridin-4-yl)-1H-pyrazolo[4,3-c]pyridin-6-yl)-3-(1-phenylethyl)urea], for which the IC50 under setting [1] was 3.07 nM. As to `O=C(Nc1cc2[nH]nc(C3CC3)c2cn1)N[C@@H]1CCOc2ccccc21` [Example 154], the IC50 under setting [1] is 70 nM. As for `CCOCCNC(=O)Nc1cc2[nH]nc(-c3ccc(F)cc3)c2cn1` [Example 616], the 50% inhibitory concentration (IC50) under setting [1] is 0.61 nM. Consider `CNC(=O)c1n[nH]c2cc(NC(=O)N[C@H](C)c3ccccc3)ncc12` [Example 137], for which the IC50 under setting [1] was 4.54 nM. On the same count and under the same terms, the result for `C[C@@H](NC(=O)Nc1cc2[nH]nc(C3CC3)c2cn1)c1ccccn1` [Example 152] reads 116 nM; that for `CCN(CC)CCC(NC(=O)Nc1cc2[nH]nc(-c3ccnc(C)c3)c2cn1)c1ccccc1` (centres unmarked) [Example 406], 1.06 nM. Turning to `C[C@@H](NC(=O)Nc1cc2[nH]nc(-c3ccnc(F)c3)c2cn1)c1ccc(Cl)cc1` [Example 57, 1-[(1R)-1-(4-chlorophenyl)ethyl]-3-[3-(2-fluoropyridin-4-yl)-1H-pyrazolo[4,3-c]pyridin-6-yl]urea], the IC50 reads like this: under setting [1], 1.84 nM; under setting [2], 0.2 to 1.7 nM. In the case of `Cc1cc(-c2n[nH]c3cc(NC(=O)N[C@H](C)c4ccccc4)ncc23)cc(C)n1` [Example 31, 1-[3-(2,6-dimethylpyridin-4-yl)-1H-pyrazolo[4,3-c]pyridin-6-yl]-3-[(1R)-1-phenylethyl]urea], the IC50 is, setting by setting: under setting [1], 0.29 nM; under setting [2], 0.2 to 1.7 nM. Take `COC(=O)C1CC1c1n[nH]c2cc(NC(=O)N[C@H](C)c3ccccc3)ncc12` (some centres unmarked) [Example 644]: the half-maximal inhibitory concentration (IC50) under setting [1] amounted to 1.07 nM.

For `C[C@@H](NC(=O)Nc1cc2[nH]nc(C(=O)NCCC3(O)CCCC3)c2cn1)c1ccccc1` [Example 126], the IC50 under setting [1] was determined as 8.33 nM. `O=C(Nc1cc2[nH]nc(C3CC3)c2cn1)NC1CCCOc2ccccc21` (centres unmarked) [Example 153]: the IC50 under setting [1] is 2.28 nM. In the case of `CNC(=O)c1cc(F)ccc1CNC(=O)Nc1cc2[nH]nc(-c3ccnc(C)c3)c2cn1` [Example 518], the half-inhibitory concentration (IC50) under setting [1] was found to be 5.18 nM. With `Cc1cc(-c2n[nH]c3cc(NC(=O)NCC(O)C(F)(F)F)ncc23)ccn1` (centres unmarked) [Example 195], the IC50 under setting [1] is 8.06 nM. In the case of `Cc1cc(-c2n[nH]c3cc(NC(=O)NC4CCc5ccncc5C4)ncc23)ccn1` (centres unmarked) [Example 400], the IC50 under setting [1] was found to be 5.42 nM.

As for `Cc1cc(-c2n[nH]c3c(F)c(NC(=O)NC(C)c4ccccn4)ncc23)ccn1` (centres unmarked) [Example 225], the concentration for half-maximal inhibition (IC50) under setting [1] turned out to be 2.45 nM. Take `COC(C)CNC(=O)c1n[nH]c2cc(NC(=O)N[C@H](C)c3ccccc3)ncc12` (some centres unmarked) [Example 131]: the 50% inhibitory concentration (IC50) under setting [1] amounted to 13.4 nM. Take `Cc1cc(-c2n[nH]c3cc(NC(=O)NCC(F)(F)CO)ncc23)ccn1` [Example 190]: the half-inhibitory concentration (IC50) under setting [1] was 3.81 nM. For `Cc1cc(-c2n[nH]c3cc(NC(=O)N[C@@H]4CCN(CC(F)(F)F)C4)ncc23)ccn1` [Example 326], the IC50 under setting [1] was found to be 3.54 nM. On to `Cc1cc(-c2n[nH]c3cc(NC(=O)NCc4cccc(-c5ncc[nH]5)c4)ncc23)ccn1` [Example 372], for which the IC50 under setting [1] is 1.33 nM. For `Cc1cc(-c2n[nH]c3cc(NC(=O)NCc4ccc(C#N)cc4)ncc23)ccn1` [Example 445], under setting [1], the IC50 was 3.73 nM.
